Laboratory results published in publication PMC9516332 (Frontiers in Oncology, 2022).

Assays:
Assay in all cases: Kinase panel profiling at 1 µmol/L (MSA or IMAP), percentage inhibition
Type in all cases: biochemical
[1] = biological target: T1, panel of 255 wild-type kinases (Homo sapiens, UniProt P15735); conditions: kinase PHKG2; 1 µmol/L single concentration; read-out: %-inhibition at 1 µmol/L, PHKG2
T1 sequence (P15735 1-406): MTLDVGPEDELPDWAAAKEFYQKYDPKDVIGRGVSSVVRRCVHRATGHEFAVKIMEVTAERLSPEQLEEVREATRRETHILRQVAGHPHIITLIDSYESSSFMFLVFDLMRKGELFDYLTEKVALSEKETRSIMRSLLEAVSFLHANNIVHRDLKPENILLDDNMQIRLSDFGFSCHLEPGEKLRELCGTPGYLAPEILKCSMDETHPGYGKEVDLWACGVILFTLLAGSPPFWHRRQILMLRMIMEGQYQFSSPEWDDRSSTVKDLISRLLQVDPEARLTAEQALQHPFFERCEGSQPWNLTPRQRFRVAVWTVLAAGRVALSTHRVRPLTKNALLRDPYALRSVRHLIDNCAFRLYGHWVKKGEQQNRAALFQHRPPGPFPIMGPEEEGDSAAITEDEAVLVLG

[2] = biological target: T2, panel of 255 wild-type kinases (Homo sapiens, UniProt Q9BXA7); conditions: kinase TSSK1; 1 µmol/L single concentration; read-out: %-inhibition at 1 µmol/L, TSSK1
T2 sequence (Q9BXA7 1-367): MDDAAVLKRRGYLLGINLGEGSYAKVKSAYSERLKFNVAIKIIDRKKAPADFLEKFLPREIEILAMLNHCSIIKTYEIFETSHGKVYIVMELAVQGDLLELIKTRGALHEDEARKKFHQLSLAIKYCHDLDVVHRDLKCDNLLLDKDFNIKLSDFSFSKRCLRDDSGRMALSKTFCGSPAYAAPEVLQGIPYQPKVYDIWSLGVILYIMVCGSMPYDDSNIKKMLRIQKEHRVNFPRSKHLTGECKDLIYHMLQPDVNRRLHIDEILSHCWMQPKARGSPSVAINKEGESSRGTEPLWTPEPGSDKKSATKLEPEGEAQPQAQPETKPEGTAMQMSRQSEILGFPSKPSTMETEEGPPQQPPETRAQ

[3] = biological target: panel of 255 wild-type kinases (Homo sapiens, UniProt Q8TDX7); conditions: NEK7; 1 µmol/L single concentration; read-out: %-inhibition, NEK7
[4] = biological target: T3, panel of 255 wild-type kinases (Homo sapiens, UniProt Q9NWZ3); conditions: kinase IRAK4; 1 µmol/L single concentration; read-out: %-inhibition at 1 µmol/L, IRAK4
T3 sequence (Q9NWZ3 1-460): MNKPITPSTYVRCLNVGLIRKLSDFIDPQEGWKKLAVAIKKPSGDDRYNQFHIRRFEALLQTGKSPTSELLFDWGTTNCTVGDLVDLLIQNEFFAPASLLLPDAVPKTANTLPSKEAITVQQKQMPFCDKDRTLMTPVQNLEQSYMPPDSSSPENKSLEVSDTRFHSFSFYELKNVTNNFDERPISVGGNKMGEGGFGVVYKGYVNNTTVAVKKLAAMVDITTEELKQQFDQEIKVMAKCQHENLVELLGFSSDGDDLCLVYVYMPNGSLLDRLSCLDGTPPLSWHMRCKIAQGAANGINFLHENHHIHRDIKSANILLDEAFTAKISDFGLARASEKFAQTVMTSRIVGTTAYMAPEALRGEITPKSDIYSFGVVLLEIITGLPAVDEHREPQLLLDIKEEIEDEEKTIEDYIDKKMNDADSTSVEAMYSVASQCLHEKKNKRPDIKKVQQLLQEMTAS

[5] = biological target: panel of 255 wild-type kinases (Homo sapiens, UniProt P04629); conditions: kinase TRKA; 1 µmol/L single concentration; read-out: %-inhibition at 1 µmol/L, TRKA
[6] = biological target: panel of 255 wild-type kinases (Homo sapiens, UniProt P23443); conditions: p70S6K; 1 µmol/L single concentration; read-out: %-inhibition, p70S6K
[7] = biological target: panel of 255 wild-type kinases (Homo sapiens, UniProt O94804); conditions: kinase LOK; 1 µmol/L single concentration; read-out: %-inhibition at 1 µmol/L, LOK
[8] = biological target: panel of 255 wild-type kinases (Homo sapiens, UniProt Q8IY84); conditions: NIM1K; 1 µmol/L single concentration; read-out: %-inhibition, NIM1K
[9] = biological target: T4, panel of 255 wild-type kinases (Homo sapiens, UniProt Q96KB5); conditions: kinase PBK; 1 µmol/L single concentration; read-out: %-inhibition at 1 µmol/L, PBK
T4 sequence (Q96KB5 1-322): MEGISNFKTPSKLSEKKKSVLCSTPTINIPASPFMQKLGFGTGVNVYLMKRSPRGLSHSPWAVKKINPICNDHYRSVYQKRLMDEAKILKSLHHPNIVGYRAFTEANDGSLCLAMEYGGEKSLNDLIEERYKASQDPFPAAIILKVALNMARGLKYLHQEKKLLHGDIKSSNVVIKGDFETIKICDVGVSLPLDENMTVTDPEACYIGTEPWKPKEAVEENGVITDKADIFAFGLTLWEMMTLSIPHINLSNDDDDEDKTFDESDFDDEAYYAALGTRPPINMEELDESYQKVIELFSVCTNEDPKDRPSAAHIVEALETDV

[10] = biological target: panel of 255 wild-type kinases (Homo sapiens, UniProt Q14289); conditions: kinase PYK2; 1 µmol/L single concentration; read-out: %-inhibition at 1 µmol/L, PYK2
[11] = biological target: panel of 255 wild-type kinases (Homo sapiens, UniProt Q9HC98); conditions: NEK6; 1 µmol/L single concentration; read-out: %-inhibition, NEK6
[12] = biological target: panel of 255 wild-type kinases (Homo sapiens, UniProt Q16620); conditions: kinase TRKB; 1 µmol/L single concentration; read-out: %-inhibition at 1 µmol/L, TRKB
[13] = biological target: panel of 255 wild-type kinases (Homo sapiens, UniProt P16591); conditions: kinase FER; 1 µmol/L single concentration; read-out: %-inhibition at 1 µmol/L, FER

Row | Compound | inhibition at 1 µM [1] [%] | inhibition at 1 µM [2] [%] | inhibition at 1 µM [3] [%] | inhibition at 1 µM [4] [%] | inhibition at 1 µM [5] [%] | inhibition at 1 µM [6] [%] | inhibition at 1 µM [7] [%] | inhibition at 1 µM [8] [%] | inhibition at 1 µM [9] [%] | inhibition at 1 µM [10] [%] | inhibition at 1 µM [11] [%] | inhibition at 1 µM [12] [%] | inhibition at 1 µM [13] [%]
1 | O=C(Nc1cnn2ccc(N3CCC[C@@H]3c3cc(F)ccc3F)nc12)N1CC[C@H](O)C1 [larotrectinib] | 5.63 | 4 | 0.263 | 1.67 | 99 | -1.58 | 5.3 | -1.85 | -5.44 | 5.34 | 0.246 | 102 | 3.72
2 | CCN1C(=O)N(c2c(F)c(OC)cc(OC)c2F)Cc2cnc3[nH]c(CN4CCOCC4)cc3c21 [pemigatinib] | 8 | 8 | 3 | 0.22 | 14 | -0.418 | 4.7 | -1.5 | -5.57 | 8 | -2.6 | 11 | -3
3 | FC(F)(F)c1ccc(CNc2ccc(Cc3c[nH]c4ncc(Cl)cc34)cn2)cn1 [pexidartinib] | 4.25 | 12 | -2.52 | 37 | 79 | 31 | 25 | -1.06 | -1.68 | 3 | -0.796 | 75 | 21
4 | CO[C@]1(C(=O)N[C@@H](C)c2ccc(-n3cc(F)cn3)nc2)CC[C@H](c2nc(C)cc(Nc3cc(C)[nH]n3)n2)CC1 [pralsetinib] | 2.24 | 4.54 | -3 | -0.786 | 96 | 29 | 13 | 0.843 | -1.86 | 64 | -0.0459 | 94 | 75
5 | CCn1c(=O)c(-c2cc(NC(=O)Nc3ccccc3)c(F)cc2Br)cc2cnc(NC)cc21 [ripretinib] | 1.5 | -4.3 | -7 | -3.46 | 42 | 64 | 53 | 0.056 | -4 | 19 | -4 | 64 | 32
6 | COc1ccc(CN2C3CC2CN(c2ccc(-c4cc(OCC(C)(C)O)cn5ncc(C#N)c45)cn2)C3)cn1 [selpercatinib] | 6.5 | 45 | 1 | 1.9 | 33 | 42 | 40 | -2 | -7 | 12 | 0.41 | 16 | 35
7 | Cn1cnc2c(F)c(Nc3ccc(Br)cc3Cl)c(C(=O)NOCCO)cc21 [selumetinib] | 3.3 | 0.947 | -0.844 | -1.34 | 18 | 8 | 5 | -0.385 | -3 | -0.622 | -1.5 | 4 | 1.22
8 | Cc1cc(Nc2ncnc3ccc(NC4=NC(C)(C)CO4)cc23)ccc1Oc1ccn2ncnc2c1 [tucatinib] | -0.185 | 2.58 | -5.58 | 0.835 | 20 | 15 | 6.43 | 1.49 | 1.21 | 1.48 | 0.486 | 6 | 1.35
9 | C=CC(=O)N1CCC([C@@H]2CCNc3c(C(N)=O)c(-c4ccc(Oc5ccccc5)cc4)nn32)CC1 [zanubrutinib] | 4.22 | 2.13 | 2 | 1 | 9 | -3.21 | 5 | -1.66 | -4 | 5.37 | -1 | 6.58 | 0.0146
